Data set [1] concerns Mus musculus. The experiment in a line: In vivo antimalarial activity to reduce parasitaemia in mice (Mus musculus) infected with Plasmodium berghei by 50% of the control. It counts as functional.
Data set [2] concerns Plasmodium falciparum. The data set can be described thus: In vitro antimalarial activity for Plasmodium falciparum. It counts as functional, organism-based.
A short description of data set [3]: Half life of compound was determined. It counts as ADME.
Data set [4] relates to Plasmodium falciparum. The experiment in a line: Inhibitory concentration against Plasmodium falciparum.
The test system of data set [5] is Mus musculus. The experiment in a line: In vivo antimalarial activity to reduce parasitaemia in mice (Mus musculus) infected with Plasmodium berghei by 50% of the control; range 1 mg/kg to 3 mg/kg. It counts as functional.
The subject of data set [6] is Plasmodium falciparum. The experiment in a line: In vitro antimalarial activity for Plasmodium falciparum; range 3 nM to 10 nM. It counts as functional, organism-based.
For data set [7], the system named is Plasmodium falciparum. The data set can be described thus: Inhibitory concentration against Plasmodium falciparum. The source holds these as a separate data set.

`Fc1ccc(C2=C[C@H]3OC4(CCCC4)OO[C@@]3(c3ccc(F)cc3)C2)cc1` returned an ED50 in data set [1] of 2.7 mg/kg. Further, in data set [2], the IC50 stood at 4 nM.
`CO[C@H]1O[C@@H](c2ccc(C(=O)O)cc2)C2CC[C@H]3CCCCC31OO2` (stereo partly specified) displayed an ED50 in data set [1] of 10 mg/kg. Further, inhibition in data set [2] was half-maximal at 30 nM (IC50).
In turn, `CO[C@H]1O[C@@]2(c3ccc(F)cc3)CCC[C@H]3CCCC[C@]31OO2` returned an ED50 in data set [1] of 10 mg/kg. In data set [2], this compound came in with an IC50 of 30 nM.
Regarding `C[C@H]1[C@H](OCc2ccc(C(=O)[O-])cc2)O[C@@H]2O[C@]3(C)CCC[C@H]4[C@H](C)CC[C@@H]1[C@@]24OO3.[Na+]`, the half-life in data set [3] was 3 h.
Take `C1CCCCCC2(CCCCC1)OOCCCOO2`: the IC50 in data set [4] stood at 3 nM; in data set [2], 25 nM. In data set [1], this compound returned an ED50 of 20 mg/kg.
`OC1CCC2(CC1)OOC1(O2)C2CC3CC(C2)CC1C3` (stereo unspecified) yielded a median effective dose (ED50) in data set [5] of 3 mg/kg. Moreover, half-maximal inhibition in data set [6] (IC50) was put at 10 nM.
Compound `CC1(OCc2ccccc2)CCC2C[C@@H]1OO[C@]2(C)CS(=O)(=O)c1ccccc1` (stereo partly specified) had an ED50 in data set [1] of 0.43 mg/kg. In data set [2], the IC50 came to 9.4 nM.
Take `Clc1ccc2c(NCCNC3CCC4(CC3)OOC3(O4)C4CC5CC(C4)CC3C5)ccnc2c1` (stereo unspecified): the IC50 in data set [2] came out at 2.5 nM.
For `C[C@@H]1CC[C@H]2[C@@H](C)C(=O)O[C@@H]3O[C@@]4(C)CC[C@@H]1[C@]32OO4` [ARTEMISININ], the IC50 in data set [7] is 10 nM.

As usually defined, the ED50 is the dose at which the effect has come halfway, by size or by number of responders. The low end stands for an effect at a small dose, the high end for a need for a large dose. For orientation: IC50 means the concentration at which inhibition is half-maximal. Read a high IC50 as a need for much substance. Broadly, the half-life is the time needed for the level to fall by half in the phase considered.
